Patent US12679848B2, “Plasma kallikrein inhibitors” (Merck Sharp & Dohme LLC, priority 2020, dated 2026)

Experiments:
[1] = biological target: human factor XIa (Homo sapiens, UniProt P03951); assay: Factor XIa Assay; type: biochemical; conditions: human factor XIa 0.04 nM, substrate GPR-AFC, 30 min pre-incubation, 25° C., pH 7.4; read-out: FXIa IC50
Experimental: (§1) The effectiveness of a compound of the present invention as an inhibitor of Coagulation factor XIa can be determined using a relevant purified serine protease, and an appropriate synthetic substrate. The rate of hydrolysis of the chromogenic or fluorogenic substrate by the relevant serine protease was measured both in the absence and presence of compounds of the present invention. Assays were conducted at rt or at 37° C. […] A decrease in the rate of fluorescence change in the presence of inhibitor is indicative of enzyme inhibition. Such methods are known to one skilled in the art. The results of this assay are expressed as the half-maximal inhibitory concentrations (IC50), or the inhibitory constant, Ki.
Compounds were pre-incubated for 30 min at 25° C. with human (0.04 nM) factor XIa in 50 mM HEPES buffer with 150 mM sodium chloride, 5 mM calcium chloride, 0.1% PEG 8000, pH 7.4. factor XIa enzymatic activity was determined by addition of the substrate glycine-proline-arginine-7-amido-4-trifluoromethylcoumarin (GPR-AFC) and measurement of the fluorescence at 400/505 nm after a 60 min incubation at 25° C. The % inhibition for each data point was calculated from the data and analyzed using the log (inhibitor) vs. response four parameters equation to determine the half-maximal inhibitory concentrations (IC50). The IC50 were converted to equilibrium inhibitory constants (Ki) using the Cheng-Prusoff equation.

[2] = biological target: T1, Human plasma kallikrein (Homo sapiens, UniProt P03952); assay: Plasma Kallikrein Assay; type: biochemical; conditions: purified Human plasma kallikrein 0.5 nM, substrate Acetyl-K-P-R-AFC, HEPES pH 7.4; read-out: PKal IC50
T1 construct: yields a heavy chain (371 amino acids) and a light chain (248 amino acids); The active site of plasma kallikrein is contained in the light chain; purchased Enzyme Research Laboratories
T1 sequence (P03952 391-638 limits assumed): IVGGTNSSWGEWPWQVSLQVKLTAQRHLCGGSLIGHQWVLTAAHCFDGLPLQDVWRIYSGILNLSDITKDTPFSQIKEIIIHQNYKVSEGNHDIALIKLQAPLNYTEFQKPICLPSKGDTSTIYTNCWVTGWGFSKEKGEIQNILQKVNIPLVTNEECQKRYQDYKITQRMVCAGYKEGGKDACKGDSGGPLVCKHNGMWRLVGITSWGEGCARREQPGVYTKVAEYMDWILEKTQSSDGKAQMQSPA
T1 sequence (P03952 20-390 partner limits assumed): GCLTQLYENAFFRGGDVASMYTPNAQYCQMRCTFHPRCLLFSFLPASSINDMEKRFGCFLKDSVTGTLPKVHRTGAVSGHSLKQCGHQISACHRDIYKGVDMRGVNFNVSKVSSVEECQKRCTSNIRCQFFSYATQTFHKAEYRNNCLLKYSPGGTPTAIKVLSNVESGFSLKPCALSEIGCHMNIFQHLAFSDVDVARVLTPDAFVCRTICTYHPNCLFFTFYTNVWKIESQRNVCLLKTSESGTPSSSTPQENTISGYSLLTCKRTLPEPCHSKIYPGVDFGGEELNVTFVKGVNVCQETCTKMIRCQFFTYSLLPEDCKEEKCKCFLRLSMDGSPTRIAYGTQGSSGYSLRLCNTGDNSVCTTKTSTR
Experimental: as §1, with “plasma kallikrein” for “Coagulation factor XIa”
Plasma kallikrein determinations were made in 50 mM HEPES buffer at pH 7.4 containing 150 mM NaCl, 5 mM CaCl2), and 0.1% PEG 8000 (polyethylene glycol; Fisher Scientific). Determinations were made using purified Human plasma kallikrein at a final concentration of 0.5 nM (Enzyme Research Laboratories) and the synthetic substrate, Acetyl-K—P—R-AFC (Sigma #C6608) at a concentration of […].
Times required to achieve equilibration between enzyme and inhibitor were determined in control experiments. […] IC50 was determined by inflection point from a four parameter logistic curve fit. Ki was calculated using the Cheng Prusoff equation, Ki=IC50/[…](1+([S]/Km)).

human factor XIa, sequence (P03951 388-625 limits assumed): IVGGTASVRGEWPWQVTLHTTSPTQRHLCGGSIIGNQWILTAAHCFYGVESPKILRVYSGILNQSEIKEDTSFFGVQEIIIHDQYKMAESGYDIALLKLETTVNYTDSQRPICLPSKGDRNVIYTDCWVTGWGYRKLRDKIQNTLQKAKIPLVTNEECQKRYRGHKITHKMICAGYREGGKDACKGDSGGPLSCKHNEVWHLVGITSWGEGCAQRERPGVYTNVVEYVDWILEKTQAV
human factor XIa, sequence (P03951 19-387 partner limits assumed): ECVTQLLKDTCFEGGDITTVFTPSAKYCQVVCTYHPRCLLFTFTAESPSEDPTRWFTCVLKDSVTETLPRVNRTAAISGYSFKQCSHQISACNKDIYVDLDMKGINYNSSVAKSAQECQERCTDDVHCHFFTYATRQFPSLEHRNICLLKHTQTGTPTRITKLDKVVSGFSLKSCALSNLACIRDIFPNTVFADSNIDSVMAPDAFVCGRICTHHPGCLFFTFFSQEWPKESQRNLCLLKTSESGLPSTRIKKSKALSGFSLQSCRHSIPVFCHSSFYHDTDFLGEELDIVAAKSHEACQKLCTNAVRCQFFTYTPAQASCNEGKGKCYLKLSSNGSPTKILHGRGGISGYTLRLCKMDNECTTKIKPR

Structure (SMILES)	IC50 [1] [nM]	IC50 [2] [nM]
Nc1c(C(=O)N2CCC[C@@]3(C2)OC(=O)Nc2ccc(Cl)c(F)c23)cnn1Cc1cnccn1 [Example 54, (R)-1'-(5-Amino-1-(pyrazin-2-ylmethyl)-1H-pyrazole-4-carbonyl)-6-chloro-5-fluorospiro[benzo[d][1,3]oxazine-4,3'-piperidin]-2(1H)-one]	601	3.4
Nc1c(C(=O)N2CCC[C@@]3(C2)OC(=O)Nc2ccc(Cl)c(F)c23)cnn1C1(C(F)(F)F)CC(F)(F)C1 [Example 52, (R)-1'-(5-Amino-1-(3,3-difluoro-1-(trifluoromethyl)cyclobutyl)-1H-pyrazole-4-carbonyl)-6-chloro-5-fluorospiro[benzo[d][1,3]oxazine-4,3'-piperidin]-2(1H)-one]	978	9.1
Nc1c(C(=O)N2CCC[C@@]3(C2)OC(=O)Nc2ccc(Cl)c(F)c23)cnn1CC1CCOCC1 [Example 12, (R)-1'-(5-Amino-1-((tetrahydro-2H-pyran-4-yl)methyl)-1H-pyrazole-4-carbonyl)-6-chloro-5-fluorospiro[benzo[d][1,3]oxazine-4,3'-piperidin]-2(1H)-one]	476	8.1
CC1(C)CN(C(=O)c2cnn(CC(F)(F)F)c2N)C[C@]2(C1)OC(=O)Nc1ccc(Cl)c(F)c12 [Example 2, (R)-1′-(5-Amino-1-(2,2,2-trifluoroethyl)-1H-pyrazole-4-carbonyl)-6-chloro-5-fluoro-5′,5′-dimethylspiro[benzo[d][1,3]oxazine-4,3′-piperidin]-2(1H)-one]	211	2.7
Nc1c(C(=O)N2CCC[C@@]3(C2)OC(=O)Nc2ccc(Cl)c(F)c23)cnn1C(C1CC1)C(F)(F)F (single isomer, unassigned) [Example 124, (R)-1'-(5-Amino-1-((R or S)-1-cyclopropyl-2,2,2-trifluoroethyl)-1H-pyrazole-4-carbonyl)-6-chloro-5-fluorospiro[benzo[d][1,3]oxazine-4,3'-piperidin]-2(1H)-one]	75	1.4
Cc1ccc(Cn2ncc(C(=O)N3CCC[C@@]4(C3)OC(=O)Nc3ccc(Cl)c(F)c34)c2N)cc1 [Example 7, (R)-1'-(5-Amino-1-(4-methylbenzyl)-1H-pyrazole-4-carbonyl)-6-chloro-5-fluorospiro[benzo[d][1,3]oxazine-4,3'-piperidin]-2(1H)-one]	201	0.5
Nc1c(C(=O)N2CCC[C@@]3(C2)OC(=O)Nc2ccc(Cl)c(F)c23)cnn1Cc1cccnc1 [Example 55, (R)-1'-(5-Amino-1-(pyridin-3-ylmethyl)-1H-pyrazole-4-carbonyl)-6-chloro-5-fluorospiro[benzo[d][1,3]oxazine-4,3'-piperidin]-2(1H)-one]	418	2
Nc1c(C(=O)N2CCC[C@@]3(C2)OC(=O)Nc2ccc(Cl)c(F)c23)cnn1Cc1cccc(C(F)(F)F)c1 [Example 5, (R)-1'-(5-Amino-1-(3-(trifluoromethyl)benzy1)-1H-pyrazole-4-carbonyl)-6-chloro-5-fluorospiro[benzo[d][1,3]oxazine-4,3'-piperidin]-2(1H)-one]	726	1.7
Nc1c(C(=O)N2CCC[C@@]3(C2)OC(=O)Nc2ccc(Cl)c(F)c23)cnn1CC(F)F [Example 15, (R)-1'-(5-Amino-1-(2,2-difluoroethyl)-1H-pyrazole-4-carbonyl)-6-chloro-5-fluorospiro[benzo[d][1,3]oxazine-4,3'-piperidin]-2(1H)-one]	882	16.9
Nc1c(C(=O)N2CCC[C@@]3(C2)OC(=O)Nc2ccc(Cl)c(F)c23)cnn1CCOCC(F)(F)F [Example 20, (R)-1'-(5-Amino-1-(2-(2,2,2-trifluoroethoxy)ethyl)-1H-pyrazole-4-carbonyl)-6-chloro-5-fluorospiro[benzo[d][1,3]oxazine-4,3'-piperidin]-2(1H)-one]	882	5.9

Next, values leading:

IC50 [1] [nM]	IC50 [2] [nM]	Structure (SMILES)
923	27.3	Nc1c(C(=O)N2CCC[C@@]3(C2)OC(=O)Nc2ccc(Cl)c(F)c23)cnn1-c1ccccc1F [Example 84, (R)-1'-(5-Amino-1-(2-fluorophenyl)-1H-pyrazole-4-carbonyl)-6-chloro-5-fluorospiro[benzo[d][1,3]oxazine-4,3'-piperidin]-2(1H)-one]
74	0.9	Nc1c(C(=O)N2CCC[C@@]3(C2)OC(=O)Nc2ccc(Cl)c(F)c23)cnn1C(c1ccccc1)C(F)(F)F (single isomer, unassigned) [Example 123]
162	1.6	Nc1c(C(=O)N2CCC[C@@]3(C2)OC(=O)Nc2ccc(Cl)c(F)c23)cnn1-c1ccccc1OC1CC1 [Example 89, (R)-1'-(5-Amino-1-(2-cyclopropoxyphenyl)-1H-pyrazole-4-carbonyl)-6-chloro-5-fluorospiro[benzo[d][1,3]oxazine-4,3'-piperidin]-2(1H)-one]
421	13.2	Cc1cnccc1-n1ncc(C(=O)N2CCC[C@@]3(C2)OC(=O)Nc2ccc(Cl)c(F)c23)c1N [Example 105, (R)-1'-(5-Amino-1-(3-methylpyridin-4-y1)-1H-pyrazole-4-carbony1)-6-chloro-5-fluorospiro[benzo[d][1,3]oxazine-4,3'-piperidin]-2(1H)-one]
1170	26.4	Cc1ccc(C)c(-n2ncc(C(=O)N3CCC[C@@]4(C3)OC(=O)Nc3ccc(Cl)c(F)c34)c2N)c1 [Example 87, (R)-1'-(5-Amino-1-(2,5-dimethylphenyl)-1H-pyrazole-4-carbonyl)-6-chloro-5-fluorospiro[benzo[d][1,3]oxazine-4,3'-piperidin]-2(1H)-one]
1690	47	Cc1ccc(F)cc1-n1ncc(C(=O)N2CCC[C@@]3(C2)OC(=O)Nc2ccc(Cl)c(F)c23)c1N [Example 88, (R)-1'-(5-Amino-1-(5-fluoro-2-methylpheny1)-1H-pyrazole-4-carbonyl)-6-chloro-5-fluorospiro[benzo[d][1,3]oxazine-4,3'-piperidin]-2(1H)-one]
252	0.9	Nc1c(C(=O)N2CCC[C@@]3(C2)OC(=O)Nc2ccc(Cl)c(F)c23)cnn1Cc1cccc(F)c1 [Example 9, (R)-1'-(5-Amino-1-(3-fluorobenzyl)-1H-pyrazole-4-carbonyl)-6-chloro-5-fluorospiro[benzo[d][1,3]oxazine-4,3'-piperidin]-2(1H)-one]
1160	25.7	Nc1c(C(=O)N2CCC[C@@]3(C2)OC(=O)Nc2ccc(Cl)c(F)c23)cnn1-c1ccc2cn[nH]c2c1 [Example 59, (R)-1'-(5-Amino-1-(1H-indazol-6-yl)-1H-pyrazole-4-carbonyl)-6-chloro-5-fluorospiro[benzo[d][1,3]oxazine-4,3'-piperidin]-2(1H)-one]
645	46	Cc1ccc(-n2ncc(C(=O)N3CCC[C@@]4(C3)OC(=O)Nc3ccc(Cl)c(F)c34)c2N)c(C)c1 [Example 86, (R)-1'-(5-Amino-1-(2,4-dimethylphenyl)-1H-pyrazole-4-carbonyl)-6-chloro-5-fluorospiro[benzo[d][1,3]oxazine-4,3'-piperidin]-2(1H)-one]
449	2.4	Nc1c(C(=O)N2CCC[C@@]3(C2)OC(=O)Nc2ccc(Cl)c(F)c23)cnn1C1Cc2ccccc2C1 [Example 38, (R)-1'-(5-Amino-1-(2,3-dihydro-1H-inden-2-yl)-1H-pyrazole-4-carbonyl)-6-chloro-5-fluorospiro[benzo[d][1,3]oxazine-4,3'-piperidin]-2(1H)-one]
418	10.4	Nc1c(C(=O)N2CCC[C@@]3(C2)OC(=O)Nc2ccc(Cl)c(F)c23)cnn1-c1c(F)cccc1F [Example 93, (R)-1'-(5-Amino-1-(2,6-difluorophenyl)-1H-pyrazole-4-carbonyl)-6-chloro-5-fluorospiro[benzo[d][1,3]oxazine-4,3'-piperidin]-2(1H)-one]
